Values quoted from earlier work as cited in patent US20080200434A1, “Chemical Target-Binding Compositions” (priority 2006, published 2008).

Assays:
[1] = chronic exposure (Hubbard, S. A. 1998)
[2] = aqueous association with glucose; Lorand and Edwards 1959

| Compound | no observed adverse effect level [1] | Kd [2] |
| --- | --- | --- |
| OB(O)O [boric acid] | 9-43 mg boron/kg/day |  |
| OB(O)c1ccccc1 [phenylboronic acid] |  | 9.1 mM |
